Experimental data published in patent US20210196724A1, “BIARYL COMPOSITIONS AND METHODS FOR MODULATING A KINASE CASCADE” (Athenex, Inc., priority 2016, published 2021).

What was measured:
Assay type in all cases: cell-based
Molt-4 cells = test: CellTiter-Glo cell viability, Molt-4; settings: Homo sapiens, 72 h
Experimental: (§1) The cell viability of 50 cancer cell lines was studied after treatment with Compound 121. Inhibition concentration values at 50% (IC50) were determined using CellTiter-Glo luminescent cell viability assay after incubation with different compound concentrations. GI50 values were determined according to the examples described above. Each cell line was treated with Compound 121, a standard chemotherapy drug as a reference control, and culture medium as a vehicle control.
(§2) All cells were cultured in media supplemented with 10-15% FBS at 37° C. in the presence of 5% CO2 and at 95% humidity. The culture medium was purchased from GIBCO or Sigma, USA. Cisplatin was chosen as the reference control and purchased from Hospira Australia Pty Ltd. The cell lines studied are presented in Table 5.
(§3) Cells were harvested during a logarithmic growth period and cell number count was determined using Count-star. Cell concentrations were adjusted to 4.44×10^4 cells/mL with respective culture medium. 90 μL of cell suspensions were added to two 96-well plates (plates A and B) with a final cell density of 4×10^3 cells/well.
(§4) 10 μL of culture medium was added to each well of plate A for TO reading. The plate was allowed to equilibrate at room temperature for approximately 30 min. 50 μL of CellTiter-Glo was added to each well and the contents were mixed for 5 min on an orbital shaker to induce cell lysis. The plate was allowed to incubate at room temperature for 20 min to stabilize luminescent signal.
(§5) 10 μM Compound 121 in media was serially diluted 3.16-fold to achieve 9 dose levels. Similarly, 100 μM reference control in media was serially diluted 3.16-fold to prepare reference control solutions. 10 μL drug solution and 10 μL of reference control was dispensed into each well in plate B.
(§6) Test plate B was incubated for 72 h in a humidified incubator at 37° C. in the presence of 5% CO2 and then subjected to CTG assay. The plate was allowed to equilibrate at room temperature for about 30 min. 50 μL of CellTiter-Glo was added to each well and the contents were mixed for 5 min on an orbital shaker to induce cell lysis. The plate was allowed to incubate at room temperature for 20 min to stabilize luminescent signal.
(§7) IC50 and GI50 values for each of the 50 cell lines are presented in Table 6 and were calculated based on the dose-response curves depicted in FIGS. 1-50. The dose-response curves were fitted using nonlinear regression model with a sigmoidal dose response. The formula for calculating survival rate was calculated by the formula:
(§8) Survival rate (%)=(LumTest article−LumMedium control)/(LumNone treated−LumMedium control)×100.

NCI-H1975 cells = test: CellTiter-Glo cell viability, NCI-H1975; settings: Homo sapiens, 72 h
Experimental: as §1, §2, §3, §4, §5, §6, §7, §8

SW579 cells = test: CellTiter-Glo cell viability, SW579; settings: 72 h
Experimental: as §1, §2, §3, §4, §5, §6, §7, §8

HeLa cells = test: CellTiter-Glo cell viability, HeLa; settings: Homo sapiens, 72 h
Experimental: as §1, §2, §3, §4, §5, §6, §7, §8

SK-N-FI cells = test: CellTiter-Glo cell viability, SK-N-FI; settings: Homo sapiens, 72 h
Experimental: as §1, §2, §3, §4, §5, §6, §7, §8

HCT-116 cells = test: CellTiter-Glo cell viability, HCT-116; settings: Homo sapiens, 72 h
Experimental: as §1, §2, §3, §4, §5, §6, §7, §8

HT-1080 cells = test: CellTiter-Glo cell viability, HT-1080; settings: Homo sapiens, 72 h
Experimental: as §1, §2, §3, §4, §5, §6, §7, §8

NCI-H226 cells = test: CellTiter-Glo cell viability, NCI-H226; settings: Homo sapiens, 72 h
Experimental: as §1, §2, §3, §4, §5, §6, §7, §8

HuT 78 cells = test: CellTiter-Glo cell viability, HuT 78; settings: Homo sapiens, HuT78, 72 h
Experimental: as §1, §2, §3, §4, §5, §6, §7, §8

OVCAR-3 cells = test: CellTiter-Glo cell viability, OVCAR-3; settings: Homo sapiens, 72 h
Experimental: as §1, §2, §3, §4, §5, §6, §7, §8

MDA-MB-231 cells = test: CellTiter-Glo cell viability, MDA-MB-231; settings: Homo sapiens, 72 h
Experimental: as §1, §2, §3, §4, §5, §6, §7, §8

HL-60 cells = test: CellTiter-Glo cell viability, HL-60; settings: Homo sapiens, 72 h
Experimental: as §1, §2, §3, §4, §5, §6, §7, §8

AN3 CA cells = test: CellTiter-Glo cell viability, AN3 CA; settings: Homo sapiens, 72 h
Experimental: as §1, §2, §3, §4, §5, §6, §7, §8

AsPC-1 cells = test: CellTiter-Glo cell viability, AsPC-1; settings: Homo sapiens, ASPC1, 72 h
Experimental: as §1, §2, §3, §4, §5, §6, §7, §8

PC-3 cells = test: CellTiter-Glo cell viability, PC-3; settings: Homo sapiens, 72 h
Experimental: as §1, §2, §3, §4, §5, §6, §7, §8

U251 cells = test: CellTiter-Glo cell viability, U251; settings: Homo sapiens, U-251, 72 h
Experimental: as §1, §2, §3, §4, §5, §6, §7, §8

HCT-15 cells = test: CellTiter-Glo cell viability, HCT-15; settings: Homo sapiens, 72 h
Experimental: as §1, §2, §3, §4, §5, §6, §7, §8

A-673 cells = test: CellTiter-Glo cell viability, A-673; settings: Homo sapiens, A673, 72 h
Experimental: as §1, §2, §3, §4, §5, §6, §7, §8

JHH-5 cells = test: CellTiter-Glo cell viability, JHH-5; settings: 72 h
Experimental: as §1, §2, §3, §4, §5, §6, §7, §8

BT474 cells = test: CellTiter-Glo cell viability, BT474; settings: Homo sapiens, BT-474, 72 h
Experimental: as §1, §2, §3, §4, §5, §6, §7, §8

143B cells = test: CellTiter-Glo cell viability, 143B; settings: Homo sapiens, 72 h
Experimental: as §1, §2, §3, §4, §5, §6, §7, §8

[1] = top conc. 10 μM Compound 121, 100 μM cisplatin

Cc1cc(N2CCOC[C@@H]2C)ccc1-c1ccc(CC(=O)NCc2ccc(F)cc2)nc1 [Compound 121]
GI50 (Molt-4 cells; read-out: Absolute GI50): 13 nM | IC50 (Molt-4 cells; read-out: Absolute IC50): 14 nM | inhibition at 10 µM (Molt-4 cells; [1]): 99.6% | GI50 (NCI-H1975 cells; read-out: Absolute GI50): 6 nM | IC50 (NCI-H1975 cells; read-out: Absolute IC50): 6 nM | inhibition at 10 µM (NCI-H1975 cells; [1]): 83.7% | GI50 (SW579 cells; read-out: Absolute GI50): 6 nM | IC50 (SW579 cells; read-out: Absolute IC50): 7 nM | inhibition at 10 µM (SW579 cells; [1]): 88.2% | GI50 (HeLa cells; read-out: Absolute GI50): 4 nM | IC50 (HeLa cells; read-out: Absolute IC50): 4 nM | inhibition at 10 µM (HeLa cells; [1]): 89.5% | GI50 (SK-N-FI cells; read-out: Absolute GI50): 3 nM | IC50 (SK-N-FI cells; read-out: Absolute IC50): 4 nM | inhibition at 10 µM (SK-N-FI cells; [1]): 91.4% | GI50 (HCT-116 cells; read-out: Absolute GI50): 9 nM | IC50 (HCT-116 cells; read-out: Absolute IC50): 9 nM | inhibition at 10 µM (HCT-116 cells; [1]): 94.4% | GI50 (HT-1080 cells; read-out: Absolute GI50): 5 nM | IC50 (HT-1080 cells; read-out: Absolute IC50): 5 nM | inhibition at 10 µM (HT-1080 cells; [1]): 97.2% | GI50 (NCI-H226 cells; read-out: Absolute GI50): 10 nM | IC50 (NCI-H226 cells; read-out: Absolute IC50): 13 nM | inhibition at 10 µM (NCI-H226 cells; [1]): 61.7% | GI50 (HuT 78 cells; read-out: Absolute GI50): 8 nM | IC50 (HuT 78 cells; read-out: Absolute IC50): 9 nM | inhibition at 10 µM (HuT 78 cells; [1]): 95.2% | GI50 (OVCAR-3 cells; read-out: Absolute GI50): 5 nM | IC50 (OVCAR-3 cells; read-out: Absolute IC50): 6 nM | inhibition at 10 µM (OVCAR-3 cells; [1]): 64.8% | GI50 (MDA-MB-231 cells; read-out: Absolute GI50): 20 nM | IC50 (MDA-MB-231 cells; read-out: Absolute IC50): > 10000 nM | inhibition at 10 µM (MDA-MB-231 cells; [1]): 45.8% | GI50 (HL-60 cells; read-out: Absolute GI50): 7 nM | IC50 (HL-60 cells; read-out: Absolute IC50): 8 nM | inhibition at 10 µM (HL-60 cells; [1]): 99.8% | GI50 (AN3 CA cells; read-out: Absolute GI50): 5 nM | IC50 (AN3 CA cells; read-out: Absolute IC50): 5 nM | inhibition at 10 µM (AN3 CA cells; [1]): 98.6% | GI50 (AsPC-1 cells; read-out: Absolute GI50): 12 nM | IC50 (AsPC-1 cells; read-out: Absolute IC50): > 10000 nM | inhibition at 10 µM (AsPC-1 cells; [1]): 51.2% | GI50 (PC-3 cells; read-out: Absolute GI50): 8 nM | IC50 (PC-3 cells; read-out: Absolute IC50): 8 nM | inhibition at 10 µM (PC-3 cells; [1]): 93.3% | GI50 (U251 cells; read-out: Absolute GI50): 9 nM | IC50 (U251 cells; read-out: Absolute IC50): 9 nM | inhibition at 10 µM (U251 cells; [1]): 75% | GI50 (HCT-15 cells; read-out: Absolute GI50): 5 nM | IC50 (HCT-15 cells; read-out: Absolute IC50): 6 nM | inhibition at 10 µM (HCT-15 cells; [1]): 96.8% | GI50 (A-673 cells; read-out: Absolute GI50): 3 nM | IC50 (A-673 cells; read-out: Absolute IC50): 4 nM | inhibition at 10 µM (A-673 cells; [1]): 86.1% | GI50 (JHH-5 cells; read-out: Absolute GI50): 7 nM | IC50 (JHH-5 cells; read-out: Absolute IC50): 7 nM | inhibition at 10 µM (JHH-5 cells; [1]): 80.5% | GI50 (BT474 cells; read-out: Absolute GI50): 12 nM | IC50 (BT474 cells; read-out: Absolute IC50): > 10000 nM | inhibition at 10 µM (BT474 cells; [1]): 37.9% | GI50 (143B cells; read-out: Absolute GI50): 8 nM | IC50 (143B cells; read-out: Absolute IC50): 8 nM | inhibition at 10 µM (143B cells; [1]): 97.8%
